Results as given in patent US8703824B2, “Cationic amphiphiles with mannose-mimicking head-groups and a process for the preparation thereof” (Council of Scientific & Industrial Research, priority 2010, dated 2014).

How the values were obtained:
[1] = test system: mouse bone marrow derived dendritic cells; experiment: DC-transfection with pα5GFP lipoplexes, flow cytometric analysis of GFP expression; assay type: cell-based, C57BL/6J mice; conditions: mbmDCs; for efficacies in delivering genes to dendritic cells relative to mannosyl analog 3: flow cytometry (FIG. 11) and fluorescence microscopy (FIG. 12)
Method: Primary mbmDCs were isolated using a previously described procedure (Inaba K, et al. J Exp Med 1992; 176:1693-1702). Briefly, bone marrow collected from tibias and fibulas of male C57BL/6 mice was passed through a nylon mesh to remove bone and debris, and resuspended in complete DC medium (RPMI-1640 containing 10% FBS, 50 μM β-mercaptoethanol, 2 mM glutamine, 1% NEAA, 20 ng/mL GM-CSF and 10 ng/mL IL-4, 1% antibiotic solution). Cells were supplemented with fresh DC medium every two days. After 6 days, the aggregated cells were dislodged by gently pipetting RPMI over the adherent stroma. The dislodged cells were pulled together and centrifuged at 280 g for […] at room temperature. The supernatant was discarded. The pellets were first resuspended in complete DC medium at 1×10^6 cells/mL and finally placed in 100 mm cell culture petri dishes at 1×10^7 cells/dish in 10 mL medium per dish. After 24 h, the nonadherent cells were collected by gently swirling the dish and were used for transfection and flow cytometry experiments. Cultures were maintained in a humidified atmosphere with 5% CO2 at 37° C.
First, the transfection efficiency of the lipids 1, 2 & 3 were evaluated in mouse bone marrow derived dendritic cells. To this end, the immature dendritic cells were isolated from the bone marrow of C57BL/6J mice by culturing with GM-CSF and IL-4 following the protocol described above. […] The profiles of the DC markers were monitored by flow cytometry. […] After confirming the presence of these expected DC markers on the surface of the isolated DCs, the transfection efficiencies of the cationic amphiphiles 1, 2 & 3 were evaluated in mbmDCs. […] Lipoplexes containing 3 μg of plasmid DNA encoding green fluorescence protein (pα5GFP) and 8 nmol cationic amphiphiles 1, 2 & 3 were added to the cells and incubated for 4 h at 37° C. in serum free medium with 5% CO2. […] The transfection efficiencies of the cationic amphiphiles 1, 2 & 3 were measured by Flow cytometric analysis.

RAW 264.7 cells [2] = experiment: Mannose receptor specific transfection of RAW 264.7 cells in presence and absence of mannan; assay type: cell-based, murine; conditions: DOPE as co-lipid; lipid:DNA ratio 8:1 to 1:1; 50 μg mannan; FIGS. 6-8
Method: (§1) Cells were seeded at a density of 25000 (for RAW 264.7) per well in a 96-well plate for 18-24 h before the transfection. 0.3 μg (0.9 nmol) of plasmid DNA was complexed with varying amounts of lipids (1 nmol-8 nmol) in serum free medium (total volume made up to 100 μL) for 30 minutes. The charge ratios were varied from 1:1 to 8:1 over these ranges of the lipids. Immediately prior to transfection, cells plated in the 96-well plate were washed with PBS (2×100 μL) followed by the addition of lipoplexes. After 4 h of incubation, the medium was replaced with fresh complete medium containing 10% FBS. The luciferase reporter gene activity was estimated after 24 h. The cells were washed twice with PBS (100 pt each) and lysed in 50 μL lysis buffer. Care was taken to ensure complete lysis. 10 μL Promega luciferase assay buffer was added to the 5 μL lysate in a polystyrene plate and the luciferase activity per well was estimated using a FLx800 microplate luminescence reader (Bio-Tek instruments, INC, UK). Protein concentration in each well was determined by the modified Lowry method (Lundqvist A, et al. J Immunother. 2002, 25, 445-454) and the luciferase activity was expressed as the relative light unit (RLU) per mg of the protein.
(§2) Each transfection experiment was repeated two times on two different days. The transfection values reported were average values from two replicate transfection plates assayed on the same day. When mannan was used, the cells were pretreated for 30 mins at 37° C., 5% CO2 with mannan (50 μg), and the transfection was carried out in its presence. After 4 h at 37° C., the medium was replaced with fresh complete medium without mannan and the transfection activity was evaluated after 24 h as described above.

[3] = Dendritic cell based genetic immunization (s.c. pre-transfected mbmDCs), anti β-gal antibody ELISA; assay type: in vivo, C57BL/6J mice; conditions: s.c. 5×10^5 pre-transfected mbmDCs twice with 7-day interval; sera two weeks after second immunization; Part A, FIG. 13
Method: The transfected mbmDCs were harvested by DC isolation protocol described above and washed with PBS (2×100 μL). The cells were resuspended in HBSS medium at 5×10^5 cells/100 μL. 6-8 weeks old female C57BL/6J mice (n=5, each weighing 20-22 g) were immunized (s.c.) with 100 μL of transfected mbmDCs (˜5×10^5 cells) twice with a 7-day interval. Two weeks after the second immunization, mice were sacrificed and sera & spleens were collected for immune response assays.
Anti-β-gal antibodies were measured using an enzyme linked immunosorbent (ELISA) assay as described earlier (McKeever, U. et al. Vaccine 2002; 20:1524-1531). Briefly, 96 well ELISA plates were coated with β-gal protein (0.3 μg per well) using a 5 μg/mL stock solution prepared in PBS. Plates were washed with PBS (3×200 μL) and blocked with 1% BSA in PBS at room temperature for 2 h. The plates were then washed with PBS containing 0.05% Tween-20 (3×200 μL) and incubated with mouse sera (100 μL) at room temperature for 2 h. The plates were again washed with PBS containing 0.05% Tween-20 (3×200 μL) and 100 μL of diluted (1:1000) anti-mouse antibody conjugated to horse radish peroxidase was added to each well. […] The plates were then incubated in dark with 100 μL of ABTS (Calbiochem, USA) per well at 25° C. for 10 min and the absorbance was measured at 405 nm by ELISA reader (Bio-Tek instruments Inc, UK).

RAW 264.7 cells [4] = experiment: Reporter gene (luciferase) expression assay, lipoplex transfection of RAW 264.7 cells; assay type: cell-based, murine; conditions: for in vitro transfection efficiencies relative to control mannosylated lipid 3: DOPE as co-lipid, lipid:DNA charge ratios 2:1 to 8:1, FIG. 4; for transfection efficiencies with DOPC as co-lipid compared to DOPE as co-lipid: lipid:DNA charge ratio of 8:1, FIG. 5
Method: The liposomes were prepared by the conventional method. Briefly, cationic lipids and co-lipids (Cholesterol, DOPE, DOPC) at 2:1 molar ratios were dissolved in chloroform. The solvent was then evaporated under a thin stream of nitrogen gas, vacuum dried for 8 h and hydrated in deionised water overnight to give a final lipid concentration of 1 mM for in vitro experiments or 5 mM for in vivo experiments. The hydrated lipid film was first vortexed for 30 seconds and then sonicated until clarity using a Branson 450 sonifier at 100% duty cycle and 25 W output power. The resulting clear aqueous liposomes were used in preparing lipoplexes.
as §1, §2

NIH3T3 cells = experiment: Transfection of NIH3T3 cells (no mannose receptor) in presence and absence of mannan; assay type: cell-based, murine; conditions: DOPE as co-lipid, lipid:DNA ratio 8:1 to 1:1, 50 μg mannan, FIGS. 6-8
Method: as §1, §2

Substance	efficacies in delivering genes to dendritic cells relative to mannosyl analog 3 [1]	transfection efficiencies when cells were pretreated with mannan (RAW 264.7 cells [2])	anti β-gal antibody responses relative to mannosyl analog 3 [3]	in vitro transfection efficiencies relative to control mannosylated lipid 3 (RAW 264.7 cells [4])	transfection efficiencies with DOPC as co-lipid compared to DOPE as co-lipid (RAW 264.7 cells [4])	transfection efficiency when cells were pretreated with mannan (NIH3T3 cells)	DC transfection efficiency (GFP expression by FACS) ([1]; 3 μg pα5GFP plasmid, 8 nmol cationic amphiphile, FIG. 11) [%]
2-[(N,N-di-n-hexadecyl-N-methyl)amino]-ethylL-L-lysyl-quinate chloride [lipid 2]	superior to those of their mannosyl analog 3	significantly diminished	higher anti β-gal antibody responses	higher in vitro transfection efficiencies than their control mannosylated lipid 3	enhanced further	did not get affected	–
2-[(N,N-di-n-hexadecyl-N-methyl)amino]-ethylL-L-lysyl-shikimate chloride [lipid 1]	superior to those of their mannosyl analog 3	significantly diminished	higher anti β-gal antibody responses	higher in vitro transfection efficiencies than their control mannosylated lipid 3	enhanced further	did not get affected	–
2-[(N,N-di-n-hexadecyl-N-methyl)amino]-ethylL-L-lysyl-β-D-Mannoside chloride [lipid 3, reference compound]	–	significantly diminished	–	–	enhanced further	did not get affected	5
